From US10011814B2, “Salt formulations for the fermentation of marine microorganisms” (Triphase Research and Development I Corp., priority 2006, dated 2018)

What was measured:
[1] = system: Salinispora tropica CNB476; experiment: Production of Salinosporamide A and analogs in shake flask culture; titers by HPLC; details: Ex.21, CoCl2·6H2O 208 μg/L seed, 52 μg/L production vs no cobalt
Protocol: (§1) To determine the production profile of Low Sodium Frozen Stocks cultures of CNB440, CNB476 and NPS21184 grown up in low sodium production medium, 5 mL each of the 48-hour second seed culture samples of CNB476 and NPS21184 was used to inoculate 100 mL of production medium having the same composition as the seed medium in a 500-mL Erlenmeyer flasks. For CNB440, 5 mL of the 72 hour second seed culture sample was used to inoculate 100 mL of production medium having the same composition as the seed medium in a 500-mL Erlenmeyer flasks. The production cultures were incubated at 250 rpm and 28° C.
(§2) 3.5 mL of the fermentation culture was mixed with equal volume of EtOAc in an extraction tube to extract the various metabolites from the production culture. The mixture was shaken on the shaker for 1 hr. […]
(§3) The production of Salinosporamide A, NPI-0047 and NPI-2065 was monitored by Agilent HP1100 HPLC using an ACE C-18 reversed-phase column (4.6×150 mm), and solvent system consisting of water (0.01% TFA) as solvent A and acetonitrile (0.01% TFA) as solvent B. The elution was started at 100% solvent A for 1 min, 100% solvent A to 35% solvent A gradient in 7 min, held at 35% solvent A for 11 min, 35% solvent A to 100% solvent B in 8 min and held at 100% solvent B for 9 min at a flow rate of 1.5 mL/min with the detector wavelength set at 210 nm and column temperature 35° C. […]

[2] = system: Salinispora tropica CNB440; experiment: as above; details: Ex.21, CoCl2·6H2O 208 μg/L seed, 52 μg/L production vs no cobalt
Protocol: as §1, §2, §3

CC[C@H]1C(=O)N[C@@]2([C@@H](O)[C@@H]3C=CCCC3)C(=O)O[C@@]12C [NPI-0047, Salinosporamide B]
reduction of production by cobalt [1]: 52% | reduction of production by cobalt [2]: 48%
